From US20200157092A1, “[1,2,4]-TRIAZOLO [1,5-A]-PYRIMIDINYL DERIVATIVES SUBSTITUTED WITH PIPERIDINE, […] […] OGA INHIBITORS” (priority 2017, published 2020)
pEC50: −log10 of the molar value. Where two headings read alike, the source gives them in different places.

Key:
[1] = target: T1, recombinant human Meningioma Expressed Antigen 5 (MGEA5), also referred to as O-GlcNAcase (OGA) (Homo sapiens, UniProt O60502); assay: OGA biochemical assay: inhibition of FM-GlcNAc hydrolysis, fluorescence; protocol A (10 nM OGA, 1 h) or protocol B (2 nM OGA, 6 h); details: for IC50: read-out: Enzymatic hOGA, pIC50 (converted)
T1 construct: Full length OGA enzyme was purchased at OriGene (cat # TP322411); purchased OriGene TP322411
T1 sequence (O60502 1-916): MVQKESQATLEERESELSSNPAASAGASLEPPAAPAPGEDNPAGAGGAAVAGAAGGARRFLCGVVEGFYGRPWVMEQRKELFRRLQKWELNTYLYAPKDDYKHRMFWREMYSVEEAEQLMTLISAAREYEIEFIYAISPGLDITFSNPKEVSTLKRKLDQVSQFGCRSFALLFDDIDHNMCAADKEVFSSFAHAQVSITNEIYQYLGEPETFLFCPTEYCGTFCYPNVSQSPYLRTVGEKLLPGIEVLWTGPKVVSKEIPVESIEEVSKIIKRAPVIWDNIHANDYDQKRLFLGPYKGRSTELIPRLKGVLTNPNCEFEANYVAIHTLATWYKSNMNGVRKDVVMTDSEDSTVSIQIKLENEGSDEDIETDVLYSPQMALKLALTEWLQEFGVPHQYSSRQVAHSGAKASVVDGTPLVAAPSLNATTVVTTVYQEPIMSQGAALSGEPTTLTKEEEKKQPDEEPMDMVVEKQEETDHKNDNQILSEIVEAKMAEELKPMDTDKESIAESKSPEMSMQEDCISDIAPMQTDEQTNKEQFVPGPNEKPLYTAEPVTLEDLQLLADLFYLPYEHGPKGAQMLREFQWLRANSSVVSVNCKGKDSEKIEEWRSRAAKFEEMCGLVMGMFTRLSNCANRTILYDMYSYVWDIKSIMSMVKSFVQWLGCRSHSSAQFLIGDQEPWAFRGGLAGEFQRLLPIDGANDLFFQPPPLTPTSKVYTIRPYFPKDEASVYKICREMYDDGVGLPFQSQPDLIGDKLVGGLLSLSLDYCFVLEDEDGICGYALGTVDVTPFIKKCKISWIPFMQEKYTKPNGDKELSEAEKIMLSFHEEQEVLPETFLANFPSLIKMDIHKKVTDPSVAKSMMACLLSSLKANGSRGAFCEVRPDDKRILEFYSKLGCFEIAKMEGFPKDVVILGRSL
Method: The hydrolysis FM-GlcNAc (Marker Gene technologies, cat # M1485) results in the formation of ß-D-N-glucosamineacetate and fluorescein. The fluorescence of the latter can be measured at excitation wavelength 485 nm and emission wavelength 538 nm. An increase in enzyme activity results in an increase in fluorescence signal. Full length OGA enzyme was purchased at OriGene (cat # TP322411). The enzyme was stored in 25 mM Tris.HCl, pH 7.3, 100 mM glycine, 10% glycerol at −20° C. […] The assay was performed in 200 mM Citrate/phosphate buffer supplemented with 0.005% Tween-20. 35.6 g Na2HPO4 2 H2O (Sigma, # C0759) were dissolved in 1 L water to obtain a 200 mM solution. […] The buffer to stop the reaction consists of a 500 mM Carbonate buffer, pH 11.0. […] OGA was used at a 10 nM (protocol A) or 2 nM (protocol B) concentration and FM-GlcNAc at a 100 uM final concentration. Dilutions were prepared in assay buffer.
Plates were pre-incubated for 60 min at room temperature and then 2 μl FM-GlcNAc substrate mix added. […] Plates were briefly centrifuged for 1 min at 1000 rpm and incubate at room temperature for 1 h (10 nM OGA, protocol A) or 6 h (2 nM OGA, protocol B). To stop the reaction 5 μl STOP buffer were added and plates centrifuge again 1 min at 1000 rpm. Fluorescence was quantified in the Thermo Scientific Fluoroskan Ascent or the PerkinElmer EnVision with excitation wavelength 485 nm and emission wavelength 538 nm.
For analysis a best-fit curve is fitted by a minimum sum of squares method. From this an IC50 value and Hill coefficient was obtained. High control (no inhibitor) and low control (saturating concentrations of standard inhibitor) were used to define the minimum and maximum values.

[2] = target: T2, OGA (Homo sapiens, UniProt O60502); assay: OGA cellular assay: immunocytochemical detection of O-GlcNAcylated proteins in HEK293 cells inducible for P301L mutant human Tau; format: cell-based; details: for Emax: HEK293, read-out: Cellular Emax (%); for Cellular hOGA; pEC50 / Cellular Emax (%): HEK293 cells inducible for P301L mutant human Tau, 6 hours incubation; for Cellular Emax (%): maximum = Thiamet G 200 uM
T2 construct: HEK293 cells inducible for P301L mutant human Tau (isoform 2N4R) were established at Janssen; endogenous in cells; host or cells: HEK293 cells inducible for P301L mutant human Tau (2N4R)
T2 sequence (O60502 1-916): T1 sequence (O60502 1-916)
Source text: HEK293 cells inducible for P301L mutant human Tau (isoform 2N4R) were established at Janssen. Thiamet-G was used for both plate validation (high control) and as reference compound (reference EC50 assay validation). […] Inhibition of OGA will result in an increase of O-GlcNAcylated protein levels resulting in an increased signal in the experiment. […] ICC pictures are imaged with a Perkin Elmer Opera Phenix plate microscope and quantified with the provided software Perkin Elmer Harmony 4.1.
Cells were propagated in DMEM high Glucose (Sigma, # D5796) following standard procedures. […] At the day of compound test medium from assay plates was removed and replenished with 90 μl of fresh Assay Medium. 10 μl of compounds at a 10 fold final concentration were added to the wells. Plates were centrifuged shortly before incubation in the cell incubator for 6 hours. DMSO concentration was set to 0.2%. Medium is discarded by applying vacuum. For staining of cells medium was removed and cells washed once with 100 μl D-PBS (Sigma, # D8537). From next step onwards unless other stated assay volume was always 50 μl and incubation was performed without agitation and at room temperature. […] Before analysis samples were washed 2 times manually for 5 minutes in ICC base buffer.
Imaging is performed using Perkin Elmer Phenix Opera using a water 20× objective and recording 9 fields per well. Intensity readout at 488 nm is used as a measure of O-GlcNAcylation level of total proteins in wells. To assess potential toxicity of compounds nuclei were counted using the Hoechst staining. IC50-values are calculated using parametric non-linear regression model fitting. As a maximum inhibition Thiamet G at a 200 uM concentration is present on each plate. In addition, a concentration response of Thiamet G is calculated on each plate.

[3] = Enzymatic protocol B (2 nM OGA, 6 h)
[4] = Enzymatic protocol A (10 nM OGA, 1 h)

| Compound | Emax [1, 3] | IC50 [1, 3] | pEC50 [2] | Emax [2] | other results |
| --- | --- | --- | --- | --- | --- |
| CC(=O)Nc1ncc(CN2C[C@@H](c3cc(C)nc4ncnn34)C[C@@H](C(F)(F)F)C2)s1 (mixture of isomers) [Product 84] | 88.5% | 1.48 µM |  |  |  |
| CC(=O)Nc1ncc(S(=O)(=O)N2CCCC(c3ccnc4nccn34)C2)s1 (racemic) [Product 2] |  |  |  |  | Emax [1, 4]: 98.4%; IC50 [1, 4]: 0.186 µM |
| CC(=O)Nc1ncc(S(=O)(=O)N2CCCC(c3cc(C)nc4ncnn34)C2)s1 (racemic) [Product 3] |  |  |  |  | Emax [1, 4]: 96%; IC50 [1, 4]: 0.0324 µM |
| CC(=O)Nc1ncc(S(=O)(=O)N2CCCC(c3cc(C(F)F)nc4nccn34)C2)s1 (racemic) [Product 5] |  |  |  |  | Emax [1, 4]: 99.4%; IC50 [1, 4]: 0.0676 µM |
| CC(=O)Nc1ncc(S(=O)(=O)N2CCC(c3cc(C)nc4ncnn34)C2)s1 (racemic) [Product 8] |  |  |  |  | Emax [1, 4]: 89%; IC50 [1, 4]: 1.55 µM |
| CC(=O)Nc1ncc(CN2CCCC(c3ccnc4nccn34)C2)s1 (racemic) [Product 10] | 100% | 0.0355 µM | 6.68 | 99% |  |
| CC(=O)Nc1ncc(CN2CCCC(c3cccc4nccn34)C2)s1 (racemic) [Product 12] | 105% | 0.0107 µM | 7.68 | 103% |  |
| CC(=O)Nc1ncc(CN2CCCC(c3ccnc4cc[nH]c34)C2)s1 (racemic) [Product 15] | 97.8% | 0.0372 µM | 7.91 | 95.2% |  |
| CC(=O)Nc1ncc(CN2CCCC(c3cnc4cc[nH]c4c3)C2)s1 (racemic) [Product 26] | 123% | 0.0407 µM | 7.62 | 99% |  |
| CC(=O)Nc1ncc(CN2CCC[C@H](c3ccnc4ccn(C)c34)C2)s1 (single isomer, unassigned) [Product 71] | 100% | 0.0126 µM | 7.06 | 79.2% |  |
| CC(=O)Nc1ncc(CN2CCC[C@H](c3cc4cc[nH]c4nc3C)C2)s1 (single isomer, unassigned) [Product 75] |  |  |  |  | Enzymatic Emax (%) [1, 3]: 100.81%; Enzymatic hOGA; pIC50 [1, 3]: 8.57; Cellular hOGA; pEC50 [2]: 7.90; Cellular Emax (%) [2]: 119.60% |
| CC(=O)Nc1ncc(CN2CCC[C@@H](c3cnc4ccn(C)c4c3)C2)s1 (single isomer, unassigned) [Product 79] |  |  |  |  | Enzymatic Emax (%) [1, 3]: 102.15%; Enzymatic hOGA; pIC50 [1, 3]: 8.14; Cellular hOGA; pEC50 [2]: 7.87; Cellular Emax (%) [2]: 101.35% |
| CC(=O)Nc1ncc(CN2CCC[C@H](c3cnc4cc[nH]c4c3)C2)s1 (single isomer, unassigned) [Product 80] |  |  |  |  | Enzymatic Emax (%) [1, 3]: 99.58%; Enzymatic hOGA; pIC50 [1, 3]: 7.69; Cellular hOGA; pEC50 [2]: 7.72; Cellular Emax (%) [2]: 109.88% |
| CC(=O)Nc1ncc(S(=O)(=O)N2CCC[C@@H](c3ccnc4ncnn34)C2)s1 [Product 1] |  |  |  |  | Emax [1, 4]: 94.2%; IC50 [1, 4]: 0.871 µM |
| CC(=O)Nc1ncc(S(=O)(=O)N2CCC[C@H](c3ccnc4ncnn34)C2)s1 [Product 4] |  |  |  |  | Emax [1, 4]: 107%; IC50 [1, 4]: 0.0309 µM |
| CC(=O)Nc1ncc(CN2CC[C@H](C)[C@@H](c3cc(C(F)F)nc4ncnn34)C2)s1 [Product 16] | 94.5% | 0.955 µM |  |  | Emax [1, 4]: 92.5%; IC50 [1, 4]: 1.82 µM |

| Compound | Emax [1, 3] | IC50 [1, 3] | pEC50 [2] | Emax [2] | other results |
| --- | --- | --- | --- | --- | --- |
| CC(=O)Nc1ncc(CN2CCCC(c3cc(C)nc4nccn34)C2)s1 (stereo not drawn) [Product 17] | 101% | 0.00851 µM | 7.26 | 106% |  |
| CC(=O)Nc1ncc(CN2CCC(c3cc(C)nc4ncnn34)C2)s1 (stereo not drawn) [Product 18] | 97.3% | 0.295 µM |  |  |  |
| CC(=O)Nc1ncc(CN2CCC(c3c(F)c(C)nc4ncnn34)C2)s1 (stereo not drawn) [Product 19] | 97.2% | 0.204 µM |  |  |  |
| CC(=O)Nc1ncc(CN2CCC(c3cc(C)nc4ccnn34)C2)s1 (stereo not drawn) [Product 21] | 98.3% | 0.407 µM |  |  |  |
| CC(=O)Nc1ncc(CN2CCCC(Cc3cc(C)nc4ccnn34)C2)s1 (stereo not drawn) [Product 44] | 101% | 0.0038 µM | 7.45 | 129% |  |
| CC(=O)Nc1ncc(CN2CCCC(Cc3cncc4nccn34)C2)s1 (stereo not drawn) [Product 45] | 100% | 0.00468 µM | 7.87 | 96.9% |  |
| CC(=O)Nc1ncc(CN2CCCC(Cc3cc(C)nc4ncnn34)C2)s1 (stereo not drawn) [Product 46] | 99.8% | 0.00234 µM | 7.83 | 114% |  |
| CC(=O)Nc1ncc(CN2CCCC(Cc3c(F)c(C)nc4ncnn34)C2)s1 (stereo not drawn) [Product 47] | 102% | 0.00126 µM | 7.81 | 109% |  |
| CC(=O)Nc1ncc(CN2CCC(Cc3cc(C)nc4ncnn34)C2)s1 (stereo not drawn) [Product 48] | 103% | 0.00174 µM | 7.77 | 104% |  |
| CC(=O)Nc1ncc(CN2CCC(Cc3c(F)c(C)nc4ncnn34)C2)s1 (stereo not drawn) [Product 49] | 101% | 0.00174 µM | 7.59 | 105% |  |
| Cc1cc(C2CN(C(C)c3ccc4c(c3)OCO4)CCO2)n2ncnc2n1 (stereo not drawn) [Product 53] | 64.6% | 6.46 µM |  |  |  |
| CC(c1ccc2c(c1)OCO2)N1CCOC(c2cc(C(F)(F)F)nc3ncnn23)C1 (stereo not drawn) [Product 54] | 25.1% | > 10 µM |  |  |  |
| CC(=O)Nc1ncc(CN2CCCC(C)(c3cc(C(F)F)nc4ncnn34)C2)s1 (stereo not drawn) [Product 61] | 27.4% | > 10 µM |  |  |  |
| CC(c1ccc2c(c1)OCO2)N1CCC(Cc2cccc3nccn23)C1 (stereo not drawn) [Product 67] | 95.7% | 0.102 µM |  |  |  |
| CC(=O)Nc1ncc(CN2CCCC(c3cc4c(ccn4C)nc3C)C2)s1 (stereo not drawn) [Product 105] | 102% | 0.00741 µM |  |  |  |
| CC(=O)Nc1ncc(S(=O)(=O)N2CCCCC(c3ccnc4ncnn34)C2)s1 (stereo not drawn) [Product 109] |  |  |  |  | Emax [1, 4]: 95.4%; IC50 [1, 4]: 0.437 µM |
